Source: US20060128608A1, “Novel chemical compounds and their use” (priority 2002, published 2006)
Converted amounts (≈) assume the structure as drawn.

What follows are compounds tested on E.coli ATCC25922 (assay: Antibiotic activity: minimum inhibitory concentration (MIC)). Conditions: Escherichia coli; strain ATCC25922.
Format: cell-based
Experimental: (§1) Antibiotic activities were determined using measurement of minimum inhibitory concentrations by standard procedures referring to the Manual of Commercial Methods in Clinical Microbiology. Ed. Allan L. Truant. ASM Press (2002) and are reported as concentrations (μM).

Compound | MIC [µM]
NC1CC(O)C(CNC(=O)[C@@H](N)CC(=O)O)OC1OC1C(N)CC(N)C(OC2OC(CO)C(O)C(N)C2O)C1O (stereo partly drawn) [Compound 33] | > 32

Each compound was assayed on P.aeruginosa ATCC27853 in the same assay as above. Conditions: Pseudomonas aeruginosa; strain ATCC27853.
Format: cell-based
Experimental: as §1

Compound | MIC [µM]
NCC[C@H](O)C(=O)N[C@@H]1C[C@H](N)[C@@H](O[C@H]2O[C@H](CN)[C@@H](O)[C@H](O)[C@H]2O)[C@H](O)[C@H]1O[C@H]1O[C@H](CO)[C@@H](O)[C@H](N)[C@H]1O [Amikacin, reference compound] | 7.5 (≈ 4.39 µg/mL)
NCC1OC(OC2C(N)CC(N)C(OC3OC4COC(=O)CCCCCCCCCCC(=O)OC4C(N)C3O)C2O)C(N)CC1O (stereo not drawn) [Compound 30] | 64 (≈ 42.4 µg/mL)
CCCCCCC(=O)OCC1OC(OC2C(N)CC(N)C(OC3OC(CN)C(OC(=O)CCCCCC)CC3N)C2O)C(OC(=O)CCCCCC)C(N)C1OC(=O)CCCCCC (stereo not drawn) [Compound 31] | 32 (≈ 29.3 µg/mL)
NC1CC(O)C(CNC(=O)C[C@H](N)C(=O)O)OC1OC1C(N)CC(N)C(OC2OC(CO)C(O)C(N)C2O)C1O (stereo partly drawn) [Compound 32] | > 64
NC1CC(O)C(CNC(=O)[C@@H](N)CC(=O)O)OC1OC1C(N)CC(N)C(OC2OC(CO)C(O)C(N)C2O)C1O (stereo partly drawn) [Compound 33] | > 64
NC[C@H]1O[C@H](O[C@H]2[C@H](O)[C@@H](O[C@H]3O[C@H](CO)[C@@H](O)[C@H](N)[C@H]3O)[C@H](N)C[C@@H]2N)[C@H](N)C[C@@H]1O [Tobramycin, reference compound] | 2 (≈ 0.935 µg/mL)

Same assay, conditions: strain ATCC27853

Compound | MIC [µM]
CCCCCCCCCCCCCCCC(=O)OCC1OC(OC2C(N)CC(N)C(OC3OC(CN)C(O)CC3N)C2O)C(O)C(N)C1O (stereo not drawn) [Compound 25, Tobramycin 6″-Palmitoyl Ester] | 16 (≈ 11.3 µg/mL)
Neomycin [reference compound] | 30
